US10300042B2, “Apremilast for the treatment of a liver disease or a liver function abnormality” (Celgene Corporation, priority 2014, dated 2019)

Experiments:
[1] = test system: patients with moderate to severe plaque psoriasis; assay: Pruritus in ESTEEM 2; type: in vivo, human; conditions: Week 16, 30 mg BID
Description: Patients were randomized with Apremilast in an amount of 30 mg twice per day or placebo for the first 16 weeks, and from Weeks 16 to 32, all patients received Apremilast in an amount of 30 mg twice per day.

[2] = test system: Aspartate Aminotransferase; assay: AST levels in PALACE 1, 2, and 3 clinical studies; type: in vivo, human
Text: Apremilast was studied in Phase 3 trials in both psoriatic arthritis and psoriasis patient populations and a Phase 2 trial in rheumatoid arthritis patients on background methotrexate. […] The improvement in mild baseline liver function test abnormalities has been observed with apremilast daily use without any prescribed changes in physical activity, social or dietary habits. The majority of the patient populations in both the psoriatic arthritis and psoriasis studies were overweight with the mean BMI for subjects greater than or equal to 30, more than half were consuming alcoholic beverages regularly, approximately 60% were taking methotrexate at an average dose of […], and 70% were using non-steroidal anti-inflammatory drugs (NSAIDs). […] During the course of the study, there was observed a higher proportion of subjects in the apremilast treatment groups (both 20 mg BID and 30 mg BID) with normal LFTs (i.e. normal levels of ALT and AST) at subsequent placebo-controlled study visits at week 4, week 16, and week 24 (See Tables 1 to 10 from PALACE 1, 2, and 3 studies).

Alanine Aminotransferase [3] = assay: ALT levels in RA-002 (rheumatoid arthritis); type: in vivo, human; conditions: for ALT High to Normal, percent of patients / ALT Net Benefit / ALT Normal to High, percent of patients: end of treatment (week 16); for ALT High, % of patients / ALT Low, % of patients / ALT Normal, % of patients: Week 16
Description: The improvement in mild baseline liver function test abnormalities has been observed with apremilast daily use without any prescribed changes in physical activity, social or dietary habits. During the course of the study, there was observed a higher proportion of subjects in the 30 mg BID apremilast treatment group with normal LFTs at subsequent placebo-controlled study visits at week 16. See Tables 17 to 24 from RA-002 studies.

Alanine Aminotransferase [4] = assay: ALT levels in PSOR-008 and PSOR-009 (plaque psoriasis); type: in vivo, human; conditions: for ALT High, % of patients / ALT Low, % of patients / ALT Normal, % of patients: Week 16, 30 mg BID
Description: Apremilast was studied in Phase 3 trials in patients with moderate to severe plaque psoriasis. […] The improvement in mild baseline liver function test abnormalities has been observed with apremilast daily use without any prescribed changes in physical activity, social or dietary habits. During the course of the study, there was observed a higher proportion of subjects in the apremilast treatment group (30 mg BID) with normal LFTs (i.e. normal levels of ALT and AST) at subsequent placebo-controlled study visits at week 16. See Tables 11 to 16 from PSOR-008 and PSOR-009 studies.

TNF-α = assay: Inhibition of TNF-α production in a mouse model; type: in vivo
Text: The test methods were as described in WO 03/080049; Muller et al., J. Med. Chem., 1996, 39:3238; and Muller et al., Bioorg. Med. Chem. Lett., 1999, 9:1625-30.

PDE5 = PDE5 (Homo sapiens, UniProt O76074); assay: PDE5 enzyme assay; type: biochemical
Description: (§1) PDE1, 2, 3 and 5 enzyme assays were prepared as described by Hidaka and Asano. Biochem. Biophys. Acta., 1976, 429:485; see also Nicholsen et al., Trends Pharmaco. Sci., 1991, 12:19. The PDE6 enzyme assay was prepared according to Baehr et al., J. Biol. Chem., 1979, 254:11669 and Gillespie et al., Mol. Pharm., 1989, 36: 773. The PDE7 enzyme assay was prepared according to Bloom and Beavo. Proc. Natl. Acad. Sci. USA, 1996, 93:14188-92.

PDE3 = PDE3 enzyme assay; type: biochemical; conditions: at 10 μM
Description: as §1

[5] = Baseline High, Week 24, 20 mg BID
[6] = Baseline High, Week 24, 30 mg BID
[7] = Baseline Normal, Week 24, 20 mg BID
[8] = Baseline Normal, Week 24, 30 mg BID
[9] = Baseline Total, Week 24, 20 mg BID
[10] = Baseline Total, Week 24, 30 mg BID
[11] = 30 BID, end of treatment (week 16)

Compound: CCOc1cc([C@@H](CS(C)(=O)=O)N2C(=O)c3cccc(NC(C)=O)c3C2=O)ccc1OC [Apremilast, (+)-2-[1-(3-ethoxy-4-methoxyphenyl)-2-methylsulfonylethyl]-4-acetylaminoisoindoline-1,3-dione]
- Change in Pruritus Visual Analog Scale (mm ± SD) [1]: −33.5 (±35.46) mm
- AST High to Normal, percent of patients ([2]; 20 BID, end of treatment): 60.9%
- AST Net Benefit ([2]; 20 BID, end of treatment): 32.6%
- AST Normal to High, percent of patients ([2]; 20 BID, end of treatment): 5.0%
- AST High to Normal, Difference between Placebo and APR 30 BID ([2]; 30 BID, end of treatment): 13.3%
- AST High to Normal, percent of patients ([2]; 30 BID, end of treatment): 73.3%
- AST Net Benefit ([2]; 30 BID, end of treatment): 48.9%
- AST Net Benefit, Difference between Placebo and APR 30 BID ([2]; 30 BID, end of treatment): 23.9%
- AST Normal to High, Difference between Placebo and APR 30 BID ([2]; 30 BID, end of treatment): −6.4%
- AST Normal to High, percent of patients ([2]; 30 BID, end of treatment): 3.8%
- AST High, % of patients [2, 5]: 39.1%
- AST Low, % of patients [2, 5]: 0.0%
- AST Normal, % of patients [2, 5]: 60.9%
- AST High, % of patients [2, 6]: 26.7%
- AST Low, % of patients [2, 6]: 0.0%
- AST Normal, % of patients [2, 6]: 73.3%
- AST High, % of patients [2, 7]: 5.0%
- AST Low, % of patients [2, 7]: 0.0%
- AST Normal, % of patients [2, 7]: 95.0%
- AST High, % of patients [2, 8]: 3.8%
- AST Low, % of patients [2, 8]: 0.0%
- AST Normal, % of patients [2, 8]: 96.2%
- AST High, % of patients [2, 9]: 6.8%
- AST Low, % of patients [2, 9]: 0.0%
- AST Normal, % of patients [2, 9]: 93.2%
- AST High, % of patients [2, 10]: 5.4%
- AST Low, % of patients [2, 10]: 0.0%
- AST Normal, % of patients [2, 10]: 94.6%
- Baseline High AST: High % ([2]; Week 4, 20 mg BID): 38.6%
- Baseline High AST: Normal % ([2]; Week 4, 20 mg BID): 61.4%
- Baseline High AST: Normal % difference from Placebo ([2]; Week 4, 20 mg BID): 9%
- Baseline High AST: High % ([2]; Week 4, 30 mg BID): 42.2%
- Baseline High AST: Normal % ([2]; Week 4, 30 mg BID): 57.8%
- Baseline High AST: Normal % difference from Placebo ([2]; Week 4, 30 mg BID): 5.4%
- Baseline High AST: High % ([2]; Week 16, 20 mg BID): 38.5%
- Baseline High AST: Normal % ([2]; Week 16, 20 mg BID): 61.5%
- Baseline High AST: Normal % difference from Placebo ([2]; Week 16, 20 mg BID): −4.3%
- decrease in the number of patients with normal levels of AST compared to the placebo group ([2]; Week 16, 20 mg BID, stated as a decrease): 4.3%
- Baseline High AST: High % ([2]; Week 16, 30 mg BID): 25.0%
- Baseline High AST: Normal % ([2]; Week 16, 30 mg BID): 75.0%
- Baseline High AST: Normal % difference from Placebo ([2]; Week 16, 30 mg BID): 9.2%
- Baseline High AST: High % ([2]; Week 24, 20 mg BID): 44.4%
- Baseline High AST: Normal % ([2]; Week 24, 20 mg BID): 55.6%
- Baseline High AST: Normal % difference from Placebo ([2]; Week 24, 20 mg BID): 5.6%
- Baseline High AST: High % ([2]; Week 24, 30 mg BID): 24.2%
- Baseline High AST: Normal % ([2]; Week 24, 30 mg BID): 75.8%
- Baseline High AST: Normal % difference from Placebo ([2]; Week 24, 30 mg BID): 25.8%
- ALT High to Normal, percent of patients (Alanine Aminotransferase [3]; 20 BID): 25.0%
- ALT Net Benefit (Alanine Aminotransferase [3]; 20 BID): 14.3%
- ALT Normal to High, percent of patients (Alanine Aminotransferase [3]; 20 BID): 4.5%
- ALT High to Normal, percent of patients (Alanine Aminotransferase [3]; 30 BID): 66.7%
- ALT Net Benefit (Alanine Aminotransferase [3]; 30 BID): 40.0%
- ALT Normal to High, percent of patients (Alanine Aminotransferase [3]; 30 BID): 3.1%
- ALT High to Normal, Difference between Placebo and APR 30 BID (Alanine Aminotransferase [3]; 30 BID, week 16): 0%
- ALT Net Benefit, Difference between Placebo and APR 30 BID (Alanine Aminotransferase [3]; 30 BID, week 16): −26.7%
- ALT Normal to High, Difference between Placebo and APR 30 BID (Alanine Aminotransferase [3]; 30 BID, week 16): 3.1%
- ALT High to Normal, Difference between Placebo and APR 30 BID (Alanine Aminotransferase [3]; 30 BID, week 16, listed as APR): 0.0%
- ALT High, % of patients (Alanine Aminotransferase [3]; Baseline High, 20 mg BID): 75.0%
- ALT Low, % of patients (Alanine Aminotransferase [3]; Baseline High, 20 mg BID): 0.0%
- ALT Normal, % of patients (Alanine Aminotransferase [3]; Baseline High, 20 mg BID): 25.0%
- ALT High, % of patients (Alanine Aminotransferase [3]; Baseline High, 30 mg BID): 33.3%
- ALT Low, % of patients (Alanine Aminotransferase [3]; Baseline High, 30 mg BID): 0.0%
- ALT Normal, % of patients (Alanine Aminotransferase [3]; Baseline High, 30 mg BID): 66.7%
- ALT High, % of patients (Alanine Aminotransferase [3]; Baseline Normal, 20 mg BID): 4.5%
- ALT Low, % of patients (Alanine Aminotransferase [3]; Baseline Normal, 20 mg BID): 0.0%
- ALT Normal, % of patients (Alanine Aminotransferase [3]; Baseline Normal, 20 mg BID): 95.5%
- ALT High, % of patients (Alanine Aminotransferase [3]; Baseline Normal, 30 mg BID): 3.1%
- ALT Low, % of patients (Alanine Aminotransferase [3]; Baseline Normal, 30 mg BID): 0.0%
- ALT Normal, % of patients (Alanine Aminotransferase [3]; Baseline Normal, 30 mg BID): 96.9%
- ALT High, % of patients (Alanine Aminotransferase [3]; Baseline Total, 20 mg BID): 8.6%
- ALT Low, % of patients (Alanine Aminotransferase [3]; Baseline Total, 20 mg BID): 0.0%
- ALT Normal, % of patients (Alanine Aminotransferase [3]; Baseline Total, 20 mg BID): 91.4%
- ALT High, % of patients (Alanine Aminotransferase [3]; Baseline Total, 30 mg BID): 4.5%
- ALT Low, % of patients (Alanine Aminotransferase [3]; Baseline Total, 30 mg BID): 0.0%
- ALT Normal, % of patients (Alanine Aminotransferase [3]; Baseline Total, 30 mg BID): 95.5%
- ALT High to Normal, percent of patients (Alanine Aminotransferase [4]; [11]): 57.1%
- ALT Net Benefit (Alanine Aminotransferase [4]; [11]): 53.7%
- ALT Normal to High, percent of patients (Alanine Aminotransferase [4]; [11]): 3.7%
- ALT High to Normal, Difference (APR 30 BID vs Placebo) (Alanine Aminotransferase [4]; 30 BID, week 16): 3.1%
- ALT Net Benefit, Difference (APR 30 BID vs Placebo) (Alanine Aminotransferase [4]; 30 BID, week 16): 17.9%
- ALT Normal to High, Difference (APR 30 BID vs Placebo) (Alanine Aminotransferase [4]; 30 BID, week 16): −2.1%
- ALT High to Normal, Difference (APR 30 BID vs Placebo) (Alanine Aminotransferase [4]; 30 BID, week 16, listed as APR): 3.1%
- ALT High, % of patients (Alanine Aminotransferase [4]; Baseline High): 42.9%
- ALT Low, % of patients (Alanine Aminotransferase [4]; Baseline High): 0.0%
- ALT Normal, % of patients (Alanine Aminotransferase [4]; Baseline High): 57.1%
- ALT High, % of patients (Alanine Aminotransferase [4]; Baseline Normal): 3.7%
- ALT Low, % of patients (Alanine Aminotransferase [4]; Baseline Normal): 0.0%
- ALT Normal, % of patients (Alanine Aminotransferase [4]; Baseline Normal): 96.3%
- ALT High, % of patients (Alanine Aminotransferase [4]; Baseline Total): 7.8%
- ALT Low, % of patients (Alanine Aminotransferase [4]; Baseline Total): 0.0%
- ALT Normal, % of patients (Alanine Aminotransferase [4]; Baseline Total): 92.2%
- EC50, TNF-α production (TNF-α): 0.05 mg/kg
- inhibition at 10 µM (PDE5): 3%
- % inhibition PDE3 (PDE3): 20%
